Reference: patent publication US20030113330A1, “Methods for treating pulmonary fibrosis” (priority 1999, published 2003)
In brackets after ≈: the same amount, converted by molar mass. Entries after “also recorded” stand apart in the source; their conditions may differ. Where a SMILES comes first, the peptide text is derived from it. The star is where a group is joined. Cbz = O=C(OCc1ccccc1)*; CH2F = FC*

What was measured:
A549 cells [1] = assay: FAS-induced apoptosis (activating anti-FAS antibody CH-11) in A549 cells, ISEL / nuclear fragmentation; assay type: cell-based, human; conditions: for inhibition of Fas-induced apoptosis of A549 cells: lisinopril 500 ng/ml
Procedure: Cell Culture. […] Cells were seeded on 12 mm sterile glass cover slips in 24-well chambers at a density of 20,000 cells per well.
Fluorescence Detection of Apoptosis. […] J. Physiol. […] In these assays detached cells were retained by centrifugation of the 24-well culture vessels during fixation with 70% ethanol. In situ end-labeling of fragmented DNA (ISEL) was conducted as described in Gorczyka et al., Canc. Res. 53:1945-1951 (1993). Briefly, ethanol was removed by rinsing cover slips in distilled water for at least 10 minutes. […] The sections were rinsed thoroughly five times with Buffer A and three additional times in 0.5 M PBS. Incorporated bio-UTP was detected by incubation for one hour at 37° C. with avidin-rhodamine; the cover slips were then rinsed in distilled water three times and mounted under Fluoromount Solution (Southern Biotechnology Associates, Birmingham, Ala.).
Spontaneous or stimulated apoptosis was quantitated as described in Uhal et al., Am. J. Physiol. 269:L819-L828 (1995), in the human lung epithelial cell line A549 by fluorescence detection of chromatin condensation and nuclear fragmentation. The human lung epithelial cell line A549 was cultured on glass cover slips as described in Uhal, et al., Am. J. Physiol. 269:L819-L828 (1995). At the end of the test period, detached cells were retained by centrifuging the culture vessel during fixation of cells in 70% ethanol. Fixed cells were incubated for 30 minutes with 5 ug/ml propidium iodide (PI) in PBS containing DNAse-free RNAse; under these conditions, red fluorescence (>570 nm) is specific for DNA. As in Uhal et al., Am. J. Physiol. 269:L819-L828 (1995), apoptotic cells were identified by the presence of discrete nuclear fragments containing condensed chromatin. Human lung A549 cells were cultured for 20 h in the presence of equivalent concentrations (500 ng/ml) of monoclonal antibody CH-11 (FAS mAb), purified IgM fraction of nonimmune mouse immunoglobulins (IgM), monoclonal antibody 5F-7 (mAb2), and monoclonal antibody 5F-9 (mAb3). Apoptotic cells were scored by the nuclear morphology assay discussed above. A significant difference (p<0.01 compared to control (no additives)), was observed between the means±S.E.M. (at least 4 determinations per condition) of the cells exposed to FAS mAb as compared to the control or other antibody treatments as determined by ANOVA and Dunnett's test. […] J. Physiol.
Ethanol-fixed A549 cells on glass cover slips were subjected to ISEL labeling of fragmented DNA. DNA fragments labeled with biotinylated UTP were detected with rhodamine-conjugated avidin. A549 cells were exposed to either 500 ng/ml anti-FAS antibody (CH-11) under the same conditions as described above or in the presence of 50 ng/ml captopril. […] ISEL-positive A549 cells were quantitated in at least four separate culture vessels exposed to the anti-FAS antibody CH-11 at 500 ng/ml and/or 50 ng/ml captopril.
A549 cells were exposed to anti-FAS antibody CH-11 as described above, in the presence of 0.005 ng/ml (5 pg/ml) to 50 ng/ml captopril. Inhibition of apoptosis was detected as the decrease in ISEL-positive cells, scored as described above. […] Inhibition of apoptosis was maximal (approximately 85-90%) at 50 ng/ml captopril, a concentration known to be physiologically attainable in humans and to be maximally inhibitory for ACE. See Duchin et al., Clin. Pharmacokinet. 14:241-259 (1988).
Cell Culture and Detection of Apoptosis. […] Ibarra-Sunga, C. Gidea, E. Ang, S. Deshmukh, G. Chaudhary, J. Baraboutis, G. Filippatos and B. D. Uhal, Angiotensin II induces apoptosis in human and rat alveolar epithelial cells. Am. J. Physiol. 276:L885-L889 (1999)). […] J. Physiol. […] As in the above Examples, the induction of apoptosis was verified by Annexin V binding and generation of DNA strand breaks […]

A549 cells [2] = assay: Amiodarone-induced net cell loss in A549 cultures; assay type: cell-based, human; conditions: A549
Procedure: (§4) Primary alveolar epithelial cells were isolated from adult male Wistar rats. The primary cells were studied at day two of culture, a time at which they are type II cell-like by accepted morphologic and biochemical criteria. All primary cell preparations were of better than 90% purity assessed by acridine orange staining. All cells were seeded in 24-well or 6-well chambers, and all experiments were conducted at subconfluent densities of 80-90% in serum-free Ham's F12 medium. Test reagents were diluted with Ham's F12 medium and were applied for 20 hours at 37C. in a 5% CO2 incubator.
(§5) Importantly, unattached cells were recovered and included in the analyses, and thus the data represent true loss of cells rather than simple detachment from the substratum.

primary rat AEC [3] = assay: Amiodarone-induced net cell loss in primary rat AEC cultures; assay type: cell-based; conditions: primary rat AEC
Procedure: as §4, §5

A549 cells [4] = conditions: for inhibition of amiodarone-induced apoptosis: captopril 500 ng/ml, saralasin 50 ug/ml, Losartan 5 pg/ml
Procedure: (§1) The human lung adenocarcinoma cell line A549 (ATCC) was cultured in Ham's F12 medium supplemented with 10% fetal bovine serum (FBS). Primary alveolar epithelial cells were isolated from adult male Wistar rats. The primary cells were studied at day two of culture, a time at which they are type II cell-like by accepted morphologic and biochemical criteria. […] All cells were seeded in 24-well or 6-well chambers, and all experiments were conducted at subconfluent densities of 80-90% in serum-free Ham's F12 medium. Test reagents were diluted with Ham's F12 medium and were applied for 20 hours at 37C. in a 5% CO2 incubator.
(§2) Apoptotic cells were detected using propidium iodide (PI) following digestion of ethanol-fixed cells with DNAse-free RNAse in PBS containing 5 ug/ml PI. […] In replicate culture vessels, necrosis was detected as the loss of exclusion of PI after application of the vital dye directly to the cell culture medium at 5 ug/ml final concentration. Red fluorescent (PI-POSITIVE) cells (>570 nm) were scored over the subsequent hour as a percentage of the total cells in any given field. A minimum of 4 separate fields were scored in each of three separate culture vessels per experiment condition; all experiments were performed at least twice and the data were compiled. Although all necrotic cells are PI-positive, some apoptotic cells may also take up the dye but these comprise a minor fraction of the total dead cell population.
(§3) In all assays, detached cells were retained by centrifugation of the culture vessel at 300×g for 10 minutes with a centrifuge rotor designed for culture plates. For detection of necrosis (dye exclusion of PI), the PI was added directly to the cell culture medium immediately before centrifugation of the culture vessel. For detection of apoptosis, ethanol was added directly to the cell culture medium to a final concentration of 70% immediately before the centrifugation. Afterward, the ethanol was carefully removed and the total cell population (attached plus sedimented detached cells) were stained with PI as described above.

primary rat AEC [5] = conditions: for inhibition of amiodarone-induced apoptosis: captopril 500 ng/ml, saralasin 50 ug/ml, Losartan 5 pg/ml, amiodarone 2.5 ug/ml for chelerythrine, orthovanadate
Procedure: as §1, §2, §3

Compound | inhibition of Fas-induced apoptosis of A549 cells (A549 cells [1]) | effect on amiodarone-induced decrease in total cell number (A549 cells [2]) | effect on amiodarone-induced decrease in total cell number (primary rat AEC [3]) | inhibition of amiodarone-induced apoptosis (A549 cells [4]) | inhibition of amiodarone-induced apoptosis (primary rat AEC [5]) | also measured
CCc1nc2c(C)cc(C)nc2n1Cc1ccc(-c2ccccc2-c2nn[nH]n2)cc1 [L158809] | could block | – | – | – | – | –
COc1ccc2c(c1OCc1ccccc1)C[C@@H](C(=O)O)N(C(=O)C(c1ccccc1)c1ccccc1)C2 [PD126055] | unable to significantly inhibit | – | – | – | – | –
COC(=O)C[C@H](NC(=O)[C@H](C)NC(=O)[C@@H](NC(=O)OCc1ccccc1)C(C)C)C(=O)CF [ZVAD-fmk, N-benzylcarboxy-Val-Ala-Asp-[O-Me]-CH2F] (Cbz-Val-Ala-Asp(OMe)-CH2F) | – | significantly inhibited | significantly inhibited | – | – | net cell loss abrogated (primary rat AEC [3]): 75%; inhibition of apoptosis in response to amiodarone (A549 cells [4]; A549): 81%; inhibition of apoptosis in response to amiodarone (primary rat AEC [5]; primary rat AEC): 97%
C[C@H](CS)C(=O)N1CCC[C@H]1C(=O)O [captopril] | – | significantly inhibited | significantly inhibited | inhibited | inhibited | effect on FAS-induced apoptotic indexes (morphology, DNA fragmentation, ISEL-positive cells) (A549 cells [1]; 50 ng/ml captopril with anti-FAS CH-11 500 ng/ml): completely abrogated; also recorded: essentially abolished; IC50 (A549 cells [1]; Homo sapiens, A549, 20 h, read-out: IC50 of inhibition of FAS-induced apoptosis (ISEL labeling)): 0.07 ng/mL (≈ 0.322 nM); inhibition at 0.05 µg/mL (A549 cells [1]; Homo sapiens, A549, read-out: maximal inhibition of apoptosis (decrease in ISEL-positive cells)): 85 to 90%; concentration at which inhibition of FAS-induced ISEL labeling was measurable (A549 cells [1]; anti-FAS CH-11): 5 pg/mL; effect on basal ISEL labeling (A549 cells [1]; captopril alone): no significant effect
NCCCC[C@H](N[C@@H](CCc1ccccc1)C(=O)O)C(=O)N1CCC[C@H]1C(=O)O [lisinopril] | significantly inhibited | – | – | – | – | inhibition at 0.5 µg/mL (A549 cells [1]; Homo sapiens, A549 or primary rat AEC, lisinopril 0.5 μg/ml, saralasin 5 μg/ml, read-out: maximal inhibition of apoptosis in response to either Fas activator): 82%
CNCC(=O)N[C@@H](CCCN=C(N)N)C(=O)N[C@H](C(=O)N[C@@H](Cc1ccc(O)cc1)C(=O)N[C@H](C(=O)N[C@@H](Cc1cnc[nH]1)C(=O)N1CCC[C@H]1C(=O)N[C@@H](C)C(=O)O)C(C)C)C(C)C [saralasin] | – | significantly inhibited | significantly inhibited | inhibited | inhibited | inhibition of AEC apoptosis in response to Fas (A549 cells [1]; cell type not given): 93%
